Experimental findings from ChEMBL document CHEMBL5120939, “Novel Isoindolinone-Based Analogs of the Natural Cyclic Peptide Fenestin A: Synthesis and Antitumor Activity” (ACS Med Chem Lett, 2022) are described below.

What all share (type): functional
Assay [1] deals with HeLa. The assay is described as follows: Induction of cell cycle arrest in human HeLa cells assessed as >4N cells at 12.3 uM incubated for 24 hrs by RNAse A/PI staining based flow cytometric analysis (reference value: 2.61%). In general terms: In flow cytometry, cells or beads pass a laser one at a time.
The test system of assay [2] is HeLa. The assay is described as follows: Induction of apoptosis in human HeLa cells assessed as necrotic cells at 26.1 uM incubated for 48 hrs by annexinV-FITC/propidium iodide staining based flow cytometry analysis (reference value: 0.0%).
Assay [3] concerns HeLa. The experiment in a line: Induction of apoptosis in human HeLa cells assessed as viable cells at 26.1 uM incubated for 48 hrs by annexinV-FITC/propidium iodide staining based flow cytometry analysis (reference value: 99.8%). To be noted: read-out: Activity.
For assay [4], the system named is HeLa. The assay is described as follows: Induction of apoptosis in human HeLa cells assessed as necrotic cells at 13.2 uM incubated for 48 hrs by annexinV-FITC/propidium iodide staining based flow cytometry analysis (reference value: 0.0%).
Assay [5] has as its system HeLa. The assay is described as follows: Induction of cell cycle arrest in human HeLa cells assessed as S phase cells at 24.6 uM incubated for 48 hrs by RNAse A/PI staining based flow cytometric analysis (reference value: 20.5%).
The subject of assay [6] is HeLa. The assay is described as follows: Induction of cell cycle arrest in human HeLa cells assessed as <2N cells at 24.6 uM incubated for 48 hrs by RNAse A/PI staining based flow cytometric analysis (reference value: 41.6%).
In assay [7] the test system is HeLa. The experiment in a line: Induction of apoptosis in human HeLa cells assessed as viable cells at 13.2 uM incubated for 48 hrs by annexinV-FITC/propidium iodide staining based flow cytometry analysis (reference value: 99.8%). To be noted: read-out: Activity.
Assay [8] has as its system HeLa. The experiment in a line: Induction of cell cycle arrest in human HeLa cells assessed as S phase cells at 12.3 uM incubated for 12 hrs by RNAse A/PI staining based flow cytometric analysis (reference value: 20.5%).
The subject of assay [9] is HeLa. The assay is described as follows: Induction of apoptosis in human HeLa cells assessed as early apoptotic cells at 13.2 uM incubated for 48 hrs by annexinV-FITC/propidium iodide staining based flow cytometry analysis (reference value: 0.1%).
Assay [10] concerns HeLa. The experiment in a line: Induction of cell cycle arrest in human HeLa cells assessed as <2N cells at 12.3 uM incubated for 12 hrs by RNAse A/PI staining based flow cytometric analysis (reference value: 41.6%).
Assay [11] has as its system HeLa. The assay is described as follows: Induction of cell cycle arrest in human HeLa cells assessed as <2N cells at 6.2 uM incubated for 48 hrs by RNAse A/PI staining based flow cytometric analysis (reference value: 41.6%).

`CC[C@H](C)[C@@H]1NC(=O)[C@H](CC(C)C)NC(=O)[C@@H]2CSCN2C(=O)[C@@H]2CSCN2C(=O)CN2C(=O)c3ccccc3[C@@]2(O)CN(Cc2ccccc2)C1=O`: the Activity in the assay on HeLa [1] turned out to be 11%; in the assay with HeLa [2] it was 0.9%; with HeLa [4], 2.6%; with HeLa [5] it was 5.72%; in the assay with HeLa [6] it was 14.4%; in the assay with HeLa [8], 11.5%. For the same compound, the Activity with HeLa [9] was found to be 5.6%; in the assay on HeLa [10] it was 33.1%; in the assay on HeLa [11] it was 37.5%. Further, in the assay with HeLa [3], the viability at 26.1 µM came to 58%. Moreover, in the assay with HeLa [7], the viability at 13.2 µM is 84.5%.
